In US4139538A, “Oxazolidinones as therapeutic agents” (priority 1975, dated 1979):

Key:
[1] = prolongation of sodium hexobarbitone narcosis; assay type: in vivo, mice; conditions: for ED (200%): Mus musculus, po, 1 h, mice, sodium hexobarbitone 70 mg/kg i.v., 60 minutes after p.o. administration, extension of the narcosis period to 200%, read-out: Prolongation of narcosis ED200; for effectiveness in prolonging sleep compared with known hypnotics and tranquillizers: versus e.g. chlorzoxazone and meprobamate
[2] = maximum electric shock test (MES), protection against tonic extensor cramp; assay type: in vivo, mice
[3] = minimum pentetrazole shock test (min PS), protection against clonic cramp; assay type: in vivo, mice; conditions: Mus musculus, po, 1 h, read-out: Anticonvulsive activity Min PS ED50;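 note: albino NMRI mice, oral dosing, clonic seizures provoked 60 min later by subcutaneous pentetrazole 70 mg/kg, ED50 is the dose protecting half of animals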
[4] = paralysis: loss of the postural and balancing reflexes (lying down); assay type: in vivo, mice; conditions: for ED50: Mus musculus, po, read-out: Paralysis ED50; for effectiveness in relaxing the muscle system compared with known hypnotics and tranquillizers: versus e.g. chlorzoxazone and meprobamate
in vivo = conditions: mouse, po
[5] = administration of a tablet to a human suffering from motor restlessness, with electroencephalogram; assay type: in vivo; conditions: 50 mg
Experimental: A tablet produced in accordance with Example 75 consisting of 50 mg. of the active compound according to Example 43 and the equivalent amount of the other ingredients was administered to a human suffering from motor restlessness.

[6] = Mus musculus, po, 1 h; read-out: Anticonvulsive activity MES ED50
[7] = Mus musculus, po, 1 h, read-out: Anticonvulsive activity MES ED50
[8] = mice, 70 mg/kg pentetrazole s.c., 60 minutes after p.o. administration, protection in 50% of the animals
[9] = mice, p.o., lying down in 50% of the animals
[10] = MES and min PS test models; versus trimethadione and dipropyl acetate

Row | Compound | ED (200%) [1] [mg/kg] | ED50 [2, 6] [mg/kg] | ED50 [3] [mg/kg] | ED50 [4] [mg/kg] | LD50 at 168 h (in vivo) [mg/kg] | ED50 [2, 7] [mg/kg] | ED50 [3, 8] [mg/kg] | ED50 [4, 9] [mg/kg] | anticonvulsive effect compared with conventional antiepileptics [2, 10] | effectiveness in prolonging sleep compared with known hypnotics and tranquillizers [1] | effectiveness in relaxing the muscle system compared with known hypnotics and tranquillizers [4] | electroencephalogram findings [5] | indications of a shallow sleep phase in the electroencephalogram ([5]; 5 hours after administration) | effect reported by the patient ([5]; within a period of several minutes)
1 | O=C1NC(=O)C(c2ccccc2)(c2ccccc2)N1 [Diphenylhydantoin, reference compound] | 50 | 10 |  |  |  |  |  |  |  |  |  |  |  | 
2 | CCCC(CCC)C(=O)O [Dipropylacetate, reference compound] |  |  | 450 | 1000 | > 1000 | 185 |  |  |  |  |  |  |  | 
3 | O=C1NC(C(O)c2ccc(Cl)cc2)CO1 (stereo not drawn) [Example 4, 4-(α-Hydroxy-p-chlorobenzyl)-oxazolidin-2-one] | 160 | 125 |  |  | > 1000 |  | 140 | > 1000 | superior |  |  |  |  | 
4 | CC(O)C1NC(=O)OC1c1ccccc1 (stereo not shown) [Example 5, 4-[1-(1-Hydroxyethyl)]-5-phenyl oxazolidin-2-one] | 510 | 75 |  |  | > 1000 |  | 150 | > 1000 | superior |  |  |  |  | 
5 | CC1(CO)NC(=O)OC1(C)c1ccccc1 (stereo not shown) [Example 6] | 1000 | 165 |  |  | > 100 |  | > 464 | 1000 |  |  |  |  |  | 
6 | CCC(O)(c1ccccc1)C1NC(=O)OC1C (stereo not shown) [Example 18, 4-[-1-(1-Hydroxy-1-phenyl)-propyl]-5-methyl oxazolidin-2-one] | 450 | 200 |  |  | > 1000 |  | 200 | > 1000 |  |  |  |  |  | 
7 | C=CCC(O)(CC=C)C1NC(=O)OC1C (stereo not shown) [Example 34] | 90 | 150 |  |  | > 1000 |  | > 464 | 1000 |  |  |  |  |  | 
8 | CC(C)(O)C1NC(=O)OC1c1ccccc1 (stereo not shown) [Example 37] | 650 | 59 |  |  | > 1000 |  | 130 | 1000 | superior |  |  |  |  | 
9 | CN1C(=O)OC(c2ccccc2)C1C(C)(C)O (stereo not shown) [Example 38] | 115 | 165 |  |  | > 1000 |  | 640 | 464 |  | distinctly more effective | distinctly more effective |  |  | 
10 | C=CCN1C(=O)OC(c2ccccc2)C1C(C)(C)O (stereo not shown) [Example 39] | 130 | 145 |  |  | 1000 |  | > 464 | > 1000 |  |  |  |  |  | 
11 | CCC(O)(CC)C1NC(=O)OC1c1ccccc1 (stereo not shown) [Example 40] | 165 | 75 |  |  | > 1000 |  | 430 | 1000 |  |  |  |  |  | 
12 | CCCC(O)(CCC)C1NC(=O)OC1c1ccccc1 (stereo not shown) [Example 41] | 65 | 147 |  |  | > 1000 |  | > 464 | > 1000 |  |  |  |  |  | 
13 | C=CCC(O)(CC=C)C1NC(=O)OC1c1ccccc1 (stereo not shown) [Example 43] | 15 | 25 |  |  | 1000 |  | > 464 | 225 |  | distinctly more effective | distinctly more effective | characteristic signs of a sedation with a decrease of effectiveness in the alpha and beta band and a change of the range of main activity to the lower frequency range | clearly increased | muscle relaxing, tiring and ataraktic sedation
14 | CCCC(O)(CCC)C1COC(=O)N1 (stereo not shown) [Example 45] | 210 | 120 |  |  | > 1000 |  | 430 | 1000 |  |  |  |  |  | 
15 | O=C1NC(C(O)(c2ccccc2)c2cccc(Cl)c2)CO1 (stereo not shown) [Example 49] | 90 | 200 |  |  | > 1000 |  | > 464 | > 1000 |  |  |  |  |  | 
16 | CCC(O)(c1ccccc1)C1COC(=O)N1 (stereo not shown) [Example 54] | 50 | 115 |  |  | > 1000 |  | 85 | 800 | superior | distinctly more effective | distinctly more effective |  |  | 
17 | C=CCC(O)(c1ccccc1)C1COC(=O)N1 (stereo not shown) [Example 58] | 300 | 200 |  |  | > 1000 |  | 300 | 1000 |  |  |  |  |  | 
18 | CC(O)(c1ccc(Cl)cc1)C1COC(=O)N1 (stereo not shown) [Example 59] | 110 | 165 |  |  | > 1000 |  | > 464 | > 1000 |  |  |  |  |  | 
19 | CCC(O)(c1ccc(Cl)cc1)C1COC(=O)N1 (stereo not shown) [Example 60] | 70 | 175 |  |  | > 1000 |  | > 464 | 1000 |  |  |  |  |  | 
20 | CCC(O)(c1ccccc1)C1COC(=O)N1C (stereo not shown) [Example 64] | 110 | 300 |  |  | 800 |  | > 464 | 650 |  | distinctly more effective | distinctly more effective |  |  | 
21 | CCCC(O)(c1ccccc1)C1COC(=O)N1 (stereo not shown) [Example 65] | 155 | 170 |  |  | > 1000 |  | 175 | > 1000 |  |  |  |  |  | 
22 | CC1(c2ccccc2)OC(=O)NC1CCl (stereo not shown) [Example 67, 4-Chloromethyl-5-methyl-5-phenyl oxazolidin-2-one] |  |  | 55 | 1000 | > 1000 | 93 |  |  | superior |  |  |  |  | 
23 | O=C1NC(CCl)C(c2ccccc2)O1 (stereo not shown) [Example 72] |  |  | 540 | > 1000 | > 1000 | 75 |  |  |  |  |  |  |  | 
24 | O=C1NC(CBr)C(c2ccccc2)O1 (stereo not shown) [Example 73] |  |  | 430 | > 1000 | > 1000 | 65 |  |  |  |  |  |  |  | 
25 | CCCC(C)(COC(N)=O)COC(N)=O [Meprobamate, reference compound] |  |  | 150 | 800 | 1000 | 115 |  |  |  |  |  |  |  | 
26 | CCC1(c2ccccc2)C(=O)NC(=O)NC1=O [Na-phenocarbital, reference compound] |  |  | 30 | 150 | 320 | 11 |  |  |  |  |  |  |  | 
27 | CN1C(=O)OC(C)(C)C1=O [Trimethadione, reference compound] | 660 | 450 |  |  | > 1000 |  | 240 | > 1000 |  |  |  |  |  | 
